The structures appear in SMILES notation. ± gives the expanded uncertainty stated by the source.

Data set [1] is described as follows: Molar enthalpy of transition or fusion. The settings on record: Crystal; DSC.
The conditions of data set [2]: Crystal; DTA.

As for `CC(C)CCC[C@@H](C)[C@H]1CC[C@H]2[C@@H]3CC=C4C[C@@H](O)CC[C@]4(C)[C@H]3CC[C@]12C` [.DELTA.5-cholesten-3β-ol], the “Molar enthalpy of transition or fusion” value in data set [1] amounted to 28.5 ± 0.8 kJ/mol. In addition, the Normal melting temperature in data set [2] worked out at 148.6 ± 0.5 °C.
